Reference: patent US8557984B2, “Imidazo [4, 5-C] quinoline derivatives as bromodomain inhibitors” (GlaxoSmithKline LLC, priority 2009, dated 2013)

Columns and labels:
IL-6 = assay: Measurement of LPS Induced IL-6 Secretion from Whole Blood; assay type: cell-based; conditions: LPS 200 ng/ml, 24 hours, read-out: pIC50 (IL-6 levels) (converted)
Procedure: (§1) Activation of monocytic cells by agonists of toll-like receptors such as bacterial lipopolysaccharide (LPS) results in production of key inflammatory mediators including IL-6. Such pathways are widely considered to be central to the pathophysiology of a range of auto-immune and inflammatory disorders.
Compounds to be tested are diluted to give a range of appropriate concentrations of which 1 ul of the diluted stocks is added to a 96 well plate. Following addition of whole blood (130 ul) the plates are incubated at 37 degrees (5% CO2) for 30 min before the addition of 10 ul of 2.8 ug/ml LPS, diluted in complete RPMI 1640 (final concentration=200 ng/ml), to give a total volume of 140 ul per well. After further incubation for 24 hours at 37 degrees, 140 ul of PBS are added to each well. The plates are sealed, shaken for 10 minutes and then centrifuged (2500 rpm×10 min). 100 ul of the supernatant are removed and IL-6 levels assayed by immunoassay (typically by MesoScale Discovery technology) either immediately or following storage at −20 degrees. Concentration response curves for each compound was generated from the data and an IC50 value was calculated

heme cell lines = assay: Oncology Cell Growth Assay, heme cell lines; assay type: cell-based; conditions: Homo sapiens, 72 hours, CellTiter-Glo, read-out: gIC50
Procedure: (§2) Human cell lines (n=33 comprising 15 heme cell lines, […] and 4 other cell lines) were cultured in RPMI-1640 containing 10% fetal bovine serum, 1000 viable cells per well were plated in 384-well black flat bottom polystyrene plates (Greiner #781086) in 48 μl of culture media. All plates were placed at 5% CO2, 37° C. overnight. The following day one plate was harvested with CellTiter-Glo (CTG, Promega #G7573) for a time equal to 0 (T0) measurement and compound (20 point titration from 14.7 uM to 7 pM) was added to the remaining plates. The final concentration of DMSO in all wells was 0.15%. Cells were incubated for 72 hours or the indicated time and each plate was developed with CellTiter-Glo reagent using a volume equivalent to the cell culture volume in the wells. Plates were shaken for approximately 2 minutes and chemiluminescent signal was read on the Analyst GT (Molecular Devices) or EnVision Plate Reader (Perkin Elmer).
(§3) Results were expressed as a percent of the T0 and plotted against the compound concentration. […] The Ymin-T0 value is determined by subtracting the T0 value (100%) from the Ymin value (%) determined from the fit of the concentration response curve. […]

[1] = test system: Human cell lines (n=33 comprising 15 heme cell lines, 14 breast cell lines and 4 other cell lines); assay: Oncology Cell Growth Assay, all cell lines; assay type: cell-based; conditions: across all cell lines, 72 hours, CellTiter-Glo, read-out: gIC50
Procedure: as §2, §3

breast cell lines = assay: Oncology Cell Growth Assay, breast cell lines; assay type: cell-based; conditions: Homo sapiens, 72 hours, CellTiter-Glo, read-out: gIC50
Procedure: as §2, §3

TNFα = assay: LPS Stimulated Whole Blood Measuring TNFα Levels Assay; assay type: cell-based; conditions: LPS 200 ng/ml, 24 h, read-out: pIC50 (TNFα levels) (converted)
Procedure: as §1, with “TNFα.” for “IL-6.”
Compounds to be tested are diluted to give a range of appropriate concentrations and 1 ul of the dilution stocks is added to wells of a 96 plate. Following addition of whole blood (130 ul) the plates are incubated at 37 degrees (5% CO2) for 30 min before the addition of 10 ul of 2.8 ug/ml LPS, diluted in complete RPMI 1640 (final concentration=200 ng/ml), to give a total volume of […] per well. After further incubation for 24 h at 37 degrees, 140 ul of PBS are added to each well. The plates are sealed, shaken for 10 minutes and then centrifuged (2500 rpm×10 min). 100 ul of the supernatant are removed and TNFα levels assayed by immunoassay (typically by MesoScale Discovery technology) either immediately or following storage at −20 degrees. Dose response curves for each compound was generated from the data and an IC50 value was calculated.

Balb/c male mice = assay: In Vivo Mouse Endotoxemia Model; conditions: 15 mg/kg LPS i.p., compound 10 mg/kg intravenously ninety minutes later; for Numbers of animals surviving at 4 days (summed across multiple repeat experiments): survivors/total
Description: High doses of Endotoxin (bacterial lipopolysaccharide) administered to animals produce a profound shock syndrome including a strong inflammatory response, dysregulation of cardiovascular function, organ failure and ultimately mortality. This pattern of response is very similar to human sepsis and septic shock, where the body's response to a significant bacterial infection can be similarly life threatening.
To test the compounds for use in the invention groups of eight Balb/c male mice were given a lethal dose of 15 mg/kg LPS by intraperitoneal injection. Ninety minutes later, animals were dosed intravenously with vehicle (20% cyclodextrin 1% ethanol in apyrogen water) or compound (10 mg/kg). The survival of animals was monitored at 4 days.
Numbers of animals surviving at 4 days (summed across multiple repeat experiments)

| Compound | IC50 (IL-6) [µM] | IC50 (TNFα) [µM] | other results |
| --- | --- | --- | --- |
| COc1cc2c(cc1-c1c(C)noc1C)ncc1nc(C3CCOCC3)n([C@H](C)c3ccccn3)c12 (single isomer, unassigned) [Example 45] | ≤ 3.16 |  |  |
| COc1cc2c(cc1-c1c(C)noc1C)ncc1[nH]c(=O)n([C@H](C)c3ccccn3)c12 [Example 11, 7-(3,5-dimethyl-4-isoxazolyl)-8-(methoxy)-1-[(1R)-1-(2-pyridinyl)ethyl]-1,3-dihydro-2H-imidazo[4,5-c]quinolin-2-one] | ≤ 3.16 | ≤ 3.16 | IC50 (heme cell lines): 0.118 to 1.04 µM; IC50 [1]: 0.118 to 11.1 µM; IC50 (breast cell lines): 0.432 to 11.1 µM; Animals surviving at 4 days, percent (Balb/c male mice): 83%; Numbers of animals surviving at 4 days (summed across multiple repeat experiments) (Balb/c male mice): 55/66 |
| Cc1noc(C)c1-c1ccc2c(c1)ncc1ncn(-c3ccccc3C(C)(C)C)c12 [Example 18, 1-[2-(tert-butyl)phenyl]-7-(3,5-dimethyl-4-isoxazolyl)-1H-imidazo[4,5-c]quinoline] |  |  | melting point: 216 °C |
| COc1cc2c(cc1-c1c(C)noc1C)ncc1nc(C3CCOCC3)n(Cc3ccccn3)c12 [Example 27, 7-(3,5-dimethyl-4-isoxazolyl)-8-(methoxy)-1-(2-pyridinylmethyl)-2-(tetrahydro-2H-pyran-4-yl)-1H-imidazo[4,5-c]quinoline] |  | ≤ 3.16 |  |
| COc1cc2c(cc1-c1c(C)noc1C)ncc1nc(C3CCOCC3)n([C@H](C)c3ccccc3)c12 [Example 31, 7-(3,5-dimethyl-4-isoxazolyl)-8-(methoxy)-1-[(1R)-1-phenylethyl]-2-(tetrahydro-2H-pyran-4-yl)-1H-imidazo[4,5-c]quinoline] |  | ≤ 3.16 | Animals surviving at 4 days, percent (Balb/c male mice): 38%; Numbers of animals surviving at 4 days (summed across multiple repeat experiments) (Balb/c male mice): 9/24 |
| COCCn1c(=O)n([C@H](C)c2ccccn2)c2c3cc(OC)c(-c4c(C)noc4C)cc3ncc21 [Example 37, 7-(3,5-dimethyl-4-isoxazolyl)-8-(methyloxy)-3-[2-(methyloxy)ethyl]-1-[(1R)-1-(2-pyridinyl)ethyl]-1,3-dihydro-2H-imidazo[4,5-c]quinolin-2-one] | ≤ 3.16 |  |  |
| COCc1nc2cnc3cc(-c4c(C)noc4C)c(OC)cc3c2n1C(C)c1ccccn1 (stereo not drawn) [Example 51, 7-(3,5-dimethyl-4-isoxazolyl)-8-(methyloxy)-2-[(methyloxy)methyl]-1-[1-(2-pyridinyl)ethyl]-1H-imidazo[4,5-c]quinoline] | ≤ 3.16 |  |  |
| COc1cc2c(cc1-c1c(C)n[nH]c1C)ncc1nc(C3CCOCC3)n([C@H](C)c3ccccc3)c12 [Example 108, 7-(3,5-dimethyl-1H-pyrazol-4-yl)-8-(methyloxy)-1-[(1R)-1-phenylethyl]-2-(tetrahydro-2H-pyran-4-yl)-1H-imidazo[4,5-c]quinoline] |  | ≤ 3.16 |  |

Further lines, with some results ahead:

| IC50 (IL-6) [µM] | IC50 (TNFα) [µM] | Compound | other results |
| --- | --- | --- | --- |
| ≤ 3.16 |  | COc1cc2c(cc1-c1c(C)noc1C)ncc1[nH]c(=O)n([C@@H](C)c3ccccn3)c12 (single isomer, unassigned) [Example 39] |  |
|  | ≤ 3.16 | COc1cc2c(cc1-c1c(C)noc1C)ncc1[nH]c(=O)n(-c3ccccc3OC(F)(F)F)c12 [Example 12, 7-(3,5-dimethyl-4-isoxazolyl)-8-(methoxy)-1-{2-[(trifluoromethyl)oxy]phenyl}-1,3-dihydro-2H-imidazo[4,5-c]quinolin-2-one] |  |
|  | ≤ 3.16 | COc1cc2c(cc1-c1c(C)noc1C)ncc1[nH]c(=O)n(Cc3ccccc3)c12 [Example 15] |  |
| ≤ 3.16 |  | COc1cc2c(cc1-c1c(C)noc1C)ncc1[nH]c(=O)n(C(C)c3cnn(C)c3)c12 (stereo not drawn) [Example 40, 7-(3,5-dimethyl-4-isoxazolyl)-8-(methyloxy)-1-[1-(1-methyl-1H-pyrazol-4-yl)ethyl]-1,3-dihydro-2H-imidazo[4,5-c]quinolin-2-one] |  |
|  | ≤ 3.16 | COc1nc2c(cc1-c1c(C)noc1C)ncc1[nH]c(=O)n(-c3ccccc3OC(F)(F)F)c12 [Example 126, 7-(3,5-dimethyl-4-isoxazolyl)-8-(methyloxy)-1-{2-[(trifluoromethyl)oxy]phenyl}-1,3-dihydro-2H-imidazo[4,5-c]-1,5-naphthyridin-2-one] |  |
